# Results reported in patent US20220104481A1, “CRYOPRESERVATION OF STEM CELLS” (TiGenix, S.A.U., priority 2019, published 2022).
# “Also recorded” adds a separate entry of the source.
# How the values were obtained:
# Type in all cases: cell-based, human
# ASCs = experiment: MTS assay after post-thaw seeding of ASCs pretreated with compounds prior to freezing; settings: for increase in mitochondrial activity compared to non-treated cells (MTS, 490 nm): pretreatment with 6 mM NAC
# Description: ASCs from donor A were thawed by warming the vials in a 37° C. bath and diluting the freezing medium containing DMSO with fresh complete DMEM (DMEM/F-12 media—GlutaMAX™-I, Gibco, supplemented with 100 μg/mL penicillin/streptomycin and 10% FBS). Cells were centrifuged at 450 g for 6 minutes at room temperature to eliminate leftover DMSO and plated in T-175 flasks at 20.000 cells/cm^2 in complete DMEM.
# A 600 mM stock of NAC (SIGMA) was prepared in Milli-Q water (Millipore). This stock was used for pre-treatment and post-treatment by adding directly 50 μL stock solution per well into 5 mL of medium, making a final concentration of 6 mM. For 2 mM, only 16.7 μL were added per well, and in the case of 12 mM, 100 μL of stock were added. DMSO was used as the vehicle for sc79 and LY294.
# Following the pretreatment step, the medium was removed, the cells were washed with PBS and trypsinized using trypsin-EDTA 0.25% (ThermoFisher) for 8 minutes at 37° C. After trypsin inactivation with complete DMEM, cells were harvested and centrifuged prior to resuspension in freezing medium (FBS with 10% DMSO), and frozen into 500,000 or 1 million cells per vial and stored in liquid nitrogen for further use. Specifically, the cells were frozen at −80° C. for 24 hours in a Cool Cell® device (BioCision) and then transferred to a liquid nitrogen storage container. All experiments were performed in incubators and 37° C., 5% CO2.
# […] The CellTiter 96° Aqueous One Solution Cell Proliferation Assay is a colorimetric method for determining the number of viable cells. The CellTiter 96° Aqueous One Solution reagent contains a tetrazolium compound [3-(4,5-dimethylthiazol-2-yl)-5-(3-carboxymethoxyphenyl)-2-(4-sulfophenyl)-2H-tetrazolium, MTS] and an electron coupling reagent (phenazine ethosulfate; PES). The MTS tetrazolium compound is bioreduced by cells—presumably by NADPH or NADH produced by dehydrogenase enzymes in metabolically active cells—into a coloured formazan product that is soluble in tissue culture medium.
# Briefly, 40 μL of the reagent was added to 200 μL of complete DMEM in each well and absorbance was measured after 2-3 hours at 490 nm using a […]. Each condition was measured in 6 technical repeats. The MTS assay results are presented as percentage of absorbance at 490 nm relative to the non-treated (NT) cells.
# [1] = tested on: mature dendritic cells (mDC); experiment: Co-culture of monocytes with ASCs: mDC differentiation, activation clusters (microscopy); settings: NAC-pretreated ASCs, donors A and B, transwell co-culture (FIGS. 10, 11)
# Description: Frozen vials of PBMCs were thawed, counted and CD14^+ CD16^− monocytes were isolated using the Dynabeads Untouched Human Monocytes kit (Dynal #11350D), following the manufacturer's instructions.
# Isolated CD14^+ CD16^− monocytes (see above) were plated in 5 mL of RPMIc at 1.5 million cells per 6-well (Falcon #353046), in normoxia. The following factors were added for differentiation into non-polarized M0 macrophages or further polarization into M1, M2 macrophages and mature dendritic cells (mDC) populations in monocultures (based on several publications, including Beyer et al., PLoS One (2012) 7(9): e45466; Erbel et al., J. Vis. Exp. (2013) 76: e50332; Zhou et al, 2014; Tarique et al, American Journal of Respiratory Cell and Molecular Biology 2015; 53(5):676-688.
# Immature DC (iDC): RPMIc+5 ng/mL GM-SCF+10 ng/mL IL-4 for 5 days Maturation of DC (mDC): at day 5, add 40 ng/mL LPS (i.e. add 500 μL/well of RPMIc supplemented with 400 ng/mL LPS to the pre-existing media). Human recombinant GM-CSF (#100-22B) and IL-4 (#200-04) were from Peprotech. LPS (#L8274) was from SIGMA. The addition of GM-C SF and IL4 mediates the differentiation to immature dendritic cells (iDC); 5 days later addition of LPS induces the maturation of iDCs to mDCs, and after 2 days the phenotype and function of these mature DC were analysed in the presence or absence of the ASC. Co-Culture Experiments with ASCs […]
# [2] = tested on: CD206 and CD163 on mature dendritic cells; experiment: Surface expression of phagocytic receptors CD206 and CD163 by mDC co-cultured with ASCs (flow cytometry); settings: NAC-pretreated ASCs, donors A and B (FIGS. 13, 14)
# Description: After differentiation in monoculture or co-culture in vitro (the differentiation conditions, including the cytokines used, concentrations and times of differentiation, are provided in Example 7), macrophages and mDC were harvested using 0.05% trypsin-EDTA for 10 minutes at 37° C., after supernatants were collected and frozen for future cytokine and/or HPLC analysis. After mDC were counted, they were distributed into 96-well V bottom plates for staining (Nunc #249570). Cells were incubated in Blue MACS buffer with 1% human serum for 15 minutes on ice, to block Fcγ receptor-mediated nonspecific antibody binding. Subsequently, cells were stained for 20 minutes on ice with the following antibody mixes (staining in 50 μL of 1:10 antibody dilution; except for CD64, which was 1:20 dilution): Cell viability was assessed by addition of 5 μL of 7AAD per well and staining for 10 minutes on ice, and samples were acquired in a BD Fortessa cytometer. Results were analysed in FSC Express software.
smiles,measurement,setting,value
"CC(=O)N[C@@H](CS)C(=O)O [NAC, N-Acetylcysteine]",cell number by MTS assay versus non-treated,"ASCs; 6 mM NAC pretreatment for 24 hours, 24 hours post-seeding after thaw (FIG. 2)",increased cell numbers
same,increase of mitochondrial activity after NAC pretreatment (MTS),"ASCs; 6 mM NAC pretreatment, FIGS. 4B & C (24 and 96 hours post-thaw)",15-20%
same,"increase in mitochondrial activity compared to non-treated cells (MTS, 490 nm)",ASCs; 24 hours culture post-thaw (FIG. 4B),greater than 35%
same,"increase in mitochondrial activity compared to non-treated cells (MTS, 490 nm)",ASCs; 96 hours culture post-thaw (FIG. 4C),greater than 15%
same,ASC modulation of mDC activation (no activation clusters),[1],not disrupted
same,ASC-mediated upregulation of CD206 and CD163 on mDC,[2],this upregulation was intact; also recorded: did not alter these effects
